Here are results for nine molecules from ChEMBL document CHEMBL3991601, “The target landscape of clinical kinase drugs” (Science, 2017).

In general, Kd refers to the concentration at which binding is half-saturated.

Molecules are shown by their SMILES. Activity calls are given as the source filed them. Rule as the data show it, for most assays here: actives have a measured Kd and inactives only a lower limit.

In test [1] the target is Rho-associated protein kinase 1 (Homo sapiens, UniProt Q13464).
Sequence of Rho-associated protein kinase 1 (Q13464 whole entry): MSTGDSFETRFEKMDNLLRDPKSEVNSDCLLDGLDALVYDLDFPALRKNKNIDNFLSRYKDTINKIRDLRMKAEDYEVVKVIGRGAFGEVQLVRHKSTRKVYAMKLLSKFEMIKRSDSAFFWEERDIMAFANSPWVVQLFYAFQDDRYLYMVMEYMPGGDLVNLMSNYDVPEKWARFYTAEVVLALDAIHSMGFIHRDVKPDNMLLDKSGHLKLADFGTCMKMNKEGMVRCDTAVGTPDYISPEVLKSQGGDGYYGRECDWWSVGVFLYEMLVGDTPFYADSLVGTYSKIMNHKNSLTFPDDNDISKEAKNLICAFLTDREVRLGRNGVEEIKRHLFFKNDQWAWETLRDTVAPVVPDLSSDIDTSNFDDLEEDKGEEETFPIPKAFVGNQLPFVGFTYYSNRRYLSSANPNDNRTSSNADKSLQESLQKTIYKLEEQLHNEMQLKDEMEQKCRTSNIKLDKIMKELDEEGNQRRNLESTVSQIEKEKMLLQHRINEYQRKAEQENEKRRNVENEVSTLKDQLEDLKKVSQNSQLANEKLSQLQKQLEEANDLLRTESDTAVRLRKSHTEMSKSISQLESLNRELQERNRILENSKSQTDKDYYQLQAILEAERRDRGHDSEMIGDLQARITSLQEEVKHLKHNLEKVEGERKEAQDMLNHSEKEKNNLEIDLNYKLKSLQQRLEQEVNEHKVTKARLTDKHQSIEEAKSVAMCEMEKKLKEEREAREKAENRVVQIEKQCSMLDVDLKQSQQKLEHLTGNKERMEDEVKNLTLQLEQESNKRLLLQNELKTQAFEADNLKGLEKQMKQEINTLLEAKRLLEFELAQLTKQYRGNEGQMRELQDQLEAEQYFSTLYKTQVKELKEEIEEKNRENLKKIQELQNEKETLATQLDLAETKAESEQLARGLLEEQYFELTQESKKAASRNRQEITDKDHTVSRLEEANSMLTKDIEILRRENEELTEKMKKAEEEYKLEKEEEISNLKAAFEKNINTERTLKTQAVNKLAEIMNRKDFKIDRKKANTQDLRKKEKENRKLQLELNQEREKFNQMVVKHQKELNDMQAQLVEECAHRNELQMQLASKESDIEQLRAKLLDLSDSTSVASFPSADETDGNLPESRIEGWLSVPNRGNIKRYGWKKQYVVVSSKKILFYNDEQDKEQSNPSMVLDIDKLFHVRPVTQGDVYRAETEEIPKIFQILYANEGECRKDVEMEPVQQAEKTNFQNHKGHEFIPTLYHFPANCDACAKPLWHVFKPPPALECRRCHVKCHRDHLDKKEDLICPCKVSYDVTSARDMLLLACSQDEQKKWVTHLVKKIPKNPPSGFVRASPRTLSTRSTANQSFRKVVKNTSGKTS
Test [2] concerns the target T1, DNA replication licensing factor MCM4 (Homo sapiens, UniProt P33991).
T1 sequence (P33991 whole entry): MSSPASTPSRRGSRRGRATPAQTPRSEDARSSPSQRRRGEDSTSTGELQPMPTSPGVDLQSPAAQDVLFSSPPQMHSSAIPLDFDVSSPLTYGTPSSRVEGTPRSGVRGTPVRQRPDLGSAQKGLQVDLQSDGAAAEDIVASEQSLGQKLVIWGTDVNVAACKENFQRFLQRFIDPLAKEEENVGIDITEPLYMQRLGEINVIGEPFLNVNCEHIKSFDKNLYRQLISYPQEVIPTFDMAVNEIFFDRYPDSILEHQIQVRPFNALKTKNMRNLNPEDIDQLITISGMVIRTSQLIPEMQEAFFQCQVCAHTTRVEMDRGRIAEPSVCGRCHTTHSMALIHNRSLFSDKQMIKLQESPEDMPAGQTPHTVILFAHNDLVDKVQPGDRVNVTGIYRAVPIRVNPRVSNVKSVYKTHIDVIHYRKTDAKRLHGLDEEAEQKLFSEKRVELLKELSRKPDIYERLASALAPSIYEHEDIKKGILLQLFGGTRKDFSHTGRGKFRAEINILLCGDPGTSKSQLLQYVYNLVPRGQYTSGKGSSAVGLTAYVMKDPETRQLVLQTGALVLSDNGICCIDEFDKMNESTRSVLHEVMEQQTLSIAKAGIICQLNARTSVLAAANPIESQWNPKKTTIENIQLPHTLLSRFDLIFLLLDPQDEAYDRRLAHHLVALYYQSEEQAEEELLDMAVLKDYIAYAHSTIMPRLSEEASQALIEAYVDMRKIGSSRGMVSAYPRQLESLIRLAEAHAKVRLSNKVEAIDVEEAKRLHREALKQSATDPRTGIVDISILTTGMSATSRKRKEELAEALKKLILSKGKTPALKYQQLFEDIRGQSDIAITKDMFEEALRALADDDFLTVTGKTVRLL

The target of test [3] is T2, Beta-adrenergic receptor kinase 1 (Homo sapiens, UniProt P25098).
T2 sequence (P25098 whole entry): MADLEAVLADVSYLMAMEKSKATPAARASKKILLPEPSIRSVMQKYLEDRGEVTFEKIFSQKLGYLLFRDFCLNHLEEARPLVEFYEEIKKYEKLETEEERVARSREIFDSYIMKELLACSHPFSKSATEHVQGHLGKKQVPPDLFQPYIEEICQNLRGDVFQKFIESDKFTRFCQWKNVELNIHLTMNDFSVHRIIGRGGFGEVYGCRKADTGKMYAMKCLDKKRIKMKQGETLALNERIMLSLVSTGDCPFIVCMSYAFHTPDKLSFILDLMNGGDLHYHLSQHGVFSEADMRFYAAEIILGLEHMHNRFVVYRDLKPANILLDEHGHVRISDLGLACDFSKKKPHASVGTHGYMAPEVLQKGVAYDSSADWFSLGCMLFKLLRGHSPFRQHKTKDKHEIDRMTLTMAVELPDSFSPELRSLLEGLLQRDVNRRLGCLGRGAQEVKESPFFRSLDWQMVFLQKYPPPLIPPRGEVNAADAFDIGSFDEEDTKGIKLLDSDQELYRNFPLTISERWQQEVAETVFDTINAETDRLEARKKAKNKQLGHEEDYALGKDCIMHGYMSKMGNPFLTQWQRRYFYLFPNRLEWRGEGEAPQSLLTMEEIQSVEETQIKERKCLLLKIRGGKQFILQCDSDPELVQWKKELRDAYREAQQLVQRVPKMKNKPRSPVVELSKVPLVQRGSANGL

The target of test [4] is Cyclin-dependent kinase 6 (Homo sapiens, UniProt Q00534).
Sequence of Cyclin-dependent kinase 6 (Q00534 whole entry): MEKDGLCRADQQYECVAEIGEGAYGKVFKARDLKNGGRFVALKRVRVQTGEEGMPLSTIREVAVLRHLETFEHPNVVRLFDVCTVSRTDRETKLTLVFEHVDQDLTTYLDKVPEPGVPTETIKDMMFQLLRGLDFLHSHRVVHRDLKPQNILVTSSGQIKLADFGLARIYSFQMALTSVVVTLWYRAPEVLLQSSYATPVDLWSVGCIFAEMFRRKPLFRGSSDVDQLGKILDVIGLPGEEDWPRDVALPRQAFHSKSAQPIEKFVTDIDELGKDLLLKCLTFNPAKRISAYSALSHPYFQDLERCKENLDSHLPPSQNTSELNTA
Test [5] has as its target Insulin-like growth factor 1 receptor (Homo sapiens, UniProt P08069).
Test [6] deals with Calcium/calmodulin-dependent protein kinase type II subunit delta (Homo sapiens, UniProt Q13557).
Sequence of Calcium/calmodulin-dependent protein kinase type II subunit delta (Q13557 whole entry): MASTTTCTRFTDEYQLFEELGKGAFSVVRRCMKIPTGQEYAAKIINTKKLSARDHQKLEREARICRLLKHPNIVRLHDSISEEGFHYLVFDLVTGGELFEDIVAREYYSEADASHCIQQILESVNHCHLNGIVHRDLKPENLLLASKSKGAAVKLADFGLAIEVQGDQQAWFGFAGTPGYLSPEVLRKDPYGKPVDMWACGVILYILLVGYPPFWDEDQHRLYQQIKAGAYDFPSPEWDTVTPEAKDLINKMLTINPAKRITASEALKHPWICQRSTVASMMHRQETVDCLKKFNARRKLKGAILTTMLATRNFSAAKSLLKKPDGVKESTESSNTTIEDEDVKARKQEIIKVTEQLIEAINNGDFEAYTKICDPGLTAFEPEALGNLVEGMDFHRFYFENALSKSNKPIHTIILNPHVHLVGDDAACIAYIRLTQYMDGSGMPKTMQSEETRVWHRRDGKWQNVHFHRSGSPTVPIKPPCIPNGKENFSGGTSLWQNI
The target in test [7] is Mitogen-activated protein kinase 11 (Homo sapiens, UniProt Q15759).
Sequence of Mitogen-activated protein kinase 11 (Q15759 whole entry): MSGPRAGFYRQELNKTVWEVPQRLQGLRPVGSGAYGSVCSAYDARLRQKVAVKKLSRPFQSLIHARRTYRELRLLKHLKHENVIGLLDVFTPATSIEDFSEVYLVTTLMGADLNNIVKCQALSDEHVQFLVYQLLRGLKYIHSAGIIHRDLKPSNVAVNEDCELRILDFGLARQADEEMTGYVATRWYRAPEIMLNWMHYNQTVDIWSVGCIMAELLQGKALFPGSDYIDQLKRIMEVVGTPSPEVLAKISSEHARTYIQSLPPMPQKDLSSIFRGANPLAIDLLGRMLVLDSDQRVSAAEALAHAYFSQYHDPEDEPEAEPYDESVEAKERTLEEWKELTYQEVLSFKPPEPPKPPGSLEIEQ
Test [8] has as its target Ras-related protein Rab-6A (Homo sapiens, UniProt P20340).
In test [9] the target is Receptor-interacting serine/threonine-protein kinase 2 (Homo sapiens, UniProt O43353).
Sequence of Receptor-interacting serine/threonine-protein kinase 2 (O43353 whole entry): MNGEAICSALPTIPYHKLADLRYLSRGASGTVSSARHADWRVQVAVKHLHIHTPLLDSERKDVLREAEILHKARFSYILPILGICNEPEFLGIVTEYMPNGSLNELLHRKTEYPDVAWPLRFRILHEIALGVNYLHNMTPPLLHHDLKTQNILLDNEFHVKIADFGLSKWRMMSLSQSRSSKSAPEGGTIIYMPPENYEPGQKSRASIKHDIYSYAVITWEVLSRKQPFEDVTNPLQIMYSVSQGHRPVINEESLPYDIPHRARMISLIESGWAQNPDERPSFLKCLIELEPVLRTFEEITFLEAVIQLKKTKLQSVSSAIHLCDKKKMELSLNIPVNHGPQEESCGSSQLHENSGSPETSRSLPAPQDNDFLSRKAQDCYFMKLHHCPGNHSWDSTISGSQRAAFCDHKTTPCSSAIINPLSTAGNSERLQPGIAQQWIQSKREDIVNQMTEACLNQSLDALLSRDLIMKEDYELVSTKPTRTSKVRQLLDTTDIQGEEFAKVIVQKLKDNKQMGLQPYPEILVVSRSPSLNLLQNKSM
Test [10] deals with Serine/threonine-protein kinase PAK 4 (Homo sapiens, UniProt O96013).
Sequence of Serine/threonine-protein kinase PAK 4 (O96013 whole entry): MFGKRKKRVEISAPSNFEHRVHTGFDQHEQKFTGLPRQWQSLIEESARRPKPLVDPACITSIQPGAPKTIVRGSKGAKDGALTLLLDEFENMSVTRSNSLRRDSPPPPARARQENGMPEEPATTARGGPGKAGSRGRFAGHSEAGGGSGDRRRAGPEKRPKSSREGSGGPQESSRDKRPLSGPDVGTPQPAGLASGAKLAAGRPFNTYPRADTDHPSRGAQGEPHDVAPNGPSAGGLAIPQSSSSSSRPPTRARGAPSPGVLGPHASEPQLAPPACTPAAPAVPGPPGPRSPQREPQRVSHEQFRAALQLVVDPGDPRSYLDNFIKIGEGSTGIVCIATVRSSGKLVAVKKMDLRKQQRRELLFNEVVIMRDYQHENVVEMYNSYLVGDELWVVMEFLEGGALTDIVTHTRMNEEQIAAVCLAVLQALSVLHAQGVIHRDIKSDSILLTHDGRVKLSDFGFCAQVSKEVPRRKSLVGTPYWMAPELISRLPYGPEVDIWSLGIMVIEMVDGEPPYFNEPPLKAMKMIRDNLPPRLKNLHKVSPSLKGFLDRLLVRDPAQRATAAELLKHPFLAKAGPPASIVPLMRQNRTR
The target of test [11] is T3, Serine/threonine-protein kinase Nek9 (Homo sapiens, UniProt Q8TD19).
T3 sequence (Q8TD19 whole entry): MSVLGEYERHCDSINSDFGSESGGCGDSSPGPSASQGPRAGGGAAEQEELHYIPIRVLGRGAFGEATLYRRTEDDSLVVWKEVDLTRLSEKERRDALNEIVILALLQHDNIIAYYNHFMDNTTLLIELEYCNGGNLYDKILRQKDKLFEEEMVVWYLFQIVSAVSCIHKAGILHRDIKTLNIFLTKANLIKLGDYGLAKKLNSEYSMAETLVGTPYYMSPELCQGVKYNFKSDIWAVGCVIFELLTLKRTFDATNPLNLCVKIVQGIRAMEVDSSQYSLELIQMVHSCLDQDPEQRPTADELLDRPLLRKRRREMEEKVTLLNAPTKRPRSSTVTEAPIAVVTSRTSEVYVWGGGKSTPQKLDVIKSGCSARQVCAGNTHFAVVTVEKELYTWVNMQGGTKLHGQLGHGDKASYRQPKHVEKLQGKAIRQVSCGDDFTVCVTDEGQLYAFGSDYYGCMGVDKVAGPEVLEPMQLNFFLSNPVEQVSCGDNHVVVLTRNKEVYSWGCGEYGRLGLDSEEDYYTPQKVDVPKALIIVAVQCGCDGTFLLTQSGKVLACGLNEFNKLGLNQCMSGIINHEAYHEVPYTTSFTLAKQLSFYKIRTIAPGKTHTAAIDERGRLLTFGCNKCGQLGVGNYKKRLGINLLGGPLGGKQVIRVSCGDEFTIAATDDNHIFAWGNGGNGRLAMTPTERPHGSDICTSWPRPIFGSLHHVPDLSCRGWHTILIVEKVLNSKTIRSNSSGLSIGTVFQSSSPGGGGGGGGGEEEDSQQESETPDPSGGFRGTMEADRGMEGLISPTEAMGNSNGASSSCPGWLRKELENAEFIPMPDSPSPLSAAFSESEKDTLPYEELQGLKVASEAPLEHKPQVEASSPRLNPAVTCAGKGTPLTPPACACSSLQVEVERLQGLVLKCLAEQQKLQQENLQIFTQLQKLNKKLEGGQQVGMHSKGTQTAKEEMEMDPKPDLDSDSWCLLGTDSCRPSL
Also: in the data inactive means no Kd found up to 30 µM.

Sequence of Ras-related protein Rab-6A (P20340 whole entry): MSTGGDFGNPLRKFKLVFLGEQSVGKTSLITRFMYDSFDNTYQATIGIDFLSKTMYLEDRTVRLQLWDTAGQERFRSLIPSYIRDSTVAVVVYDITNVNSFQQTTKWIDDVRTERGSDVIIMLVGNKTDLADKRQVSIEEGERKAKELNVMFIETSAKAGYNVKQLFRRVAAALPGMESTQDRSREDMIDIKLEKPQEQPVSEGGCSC

For `CC[C@H](Nc1ncnc2[nH]cnc12)c1nc2cccc(F)c2c(=O)n1-c1ccccc1` [IDELALISIB], the Kd in test [1], in test [2], in test [3], in test [4], in test [5] and in test [6] was > 30 µM (inactive) in each case. Also, the Kd in test [7], in test [8], in test [9], in test [10] and in test [11] was > 30 µM (inactive) throughout.

Consider `COC(=O)N[C@@H](C)CNc1nccc(-c2cn(C(C)C)nc2-c2cc(Cl)cc(NS(C)(=O)=O)c2F)n1` [ENCORAFENIB], for which the Kd in test [1], in test [2], in test [3], in test [4], in [5] and in test [6] was > 30 µM (inactive) in each case. Moreover, the Kd in test [7] was > 30 µM (inactive); in [8], > 30 µM (inactive); in test [9] it was 0.323 µM (active); in [10], > 30 µM (inactive); in [11] it was > 30 µM (inactive).

As to `O=c1sn(-c2cccc3ccccc23)c(=O)n1Cc1ccccc1` [TIDEGLUSIB], the Kd in [1], in test [2], in test [3], in [4], in test [5] and in [6] was > 30 µM (inactive) throughout. Further, the Kd in test [7], in test [8], in [9], in [10] and in [11] was > 30 µM (inactive) each time.

As to `O=C(c1ccc(F)c(F)c1Nc1ccc(I)cc1F)N1CC(O)([C@@H]2CCCCN2)C1` [COBIMETINIB], the Kd in [1], in test [2], in test [3], in [4], in test [5] and in test [6] was > 30 µM (inactive) in each case. Besides, the Kd in test [7], in [8], in test [9], in test [10] and in [11] was > 30 µM (inactive) throughout.

Turning to `Cc1ccc(S(=O)(=O)Nc2nc3ccccc3nc2Nc2ccc3nsnc3c2)cc1`, the Kd in test [1], in test [2], in test [3], in test [4], in [5] and in test [6] was > 30 µM (inactive) in each case. Moreover, the Kd in [7], in test [8], in test [9], in [10] and in test [11] was > 30 µM (inactive) throughout.

Consider `CNC(=O)CN1CCC(Oc2cc3c(Nc4cccc(Cl)c4F)ncnc3cc2OC)CC1` [SAPITINIB], for which the Kd in [1], in [2], in [3], in test [4], in [5] and in test [6] was > 30 µM (inactive) throughout. Moreover, the Kd in test [7] is > 30 µM (inactive); in test [8], > 30 µM (inactive); in test [9] it was 0.751 µM (active); in [10], > 30 µM (inactive); in test [11], > 30 µM (inactive).

Regarding `Cc1cc([C@@H](C)Nc2ccccc2C(=O)O)c2nc(N3CCOCC3)cc(=O)n2c1` [AZD-6482], the Kd in test [1], in test [2], in test [3], in test [4], in test [5] and in test [6] was > 30 µM (inactive) in each case. Also, the Kd in test [7], in test [8], in test [9], in test [10] and in [11] was > 30 µM (inactive) each time.

Take `CCN1CCN(Cc2ccc(-c3cc4c(N[C@H](C)c5ccccc5)ncnc4[nH]3)cc2)CC1` [AEE-788]: the Kd in test [1], in test [2], in test [3], in test [4], in test [5] and in test [6] was > 30 µM (inactive) throughout. In addition, the Kd in test [7], in [8], in [9], in [10] and in test [11] was > 30 µM (inactive) throughout.

`CC(=O)Nc1cccc(-n2c(=O)n(C3CC3)c(=O)c3c(Nc4ccc(I)cc4F)n(C)c(=O)c(C)c32)c1` [TRAMETINIB]: the Kd in [1], in [2], in test [3], in [4], in test [5] and in test [6] was > 30 µM (inactive) throughout. In addition, the Kd in [7], in test [8], in test [9], in test [10] and in [11] was > 30 µM (inactive) each time.
